Test results published in US20070199084A1, “Ubiquitination of Membrane Transporters” (VANDERBILT UNIVERSITY, priority 2005, published 2007).
Residues, ends and D or L forms follow the SMILES beside them. *: point of attachment. Cbz = O=C(OCc1ccccc1)*

Columns and labels:
dopamine transporter = biological target: T1, dopamine transporter (Canis lupus familiaris, UniProt A0A8I3S5A0); conditions: cited from earlier work
T1 construct: digitonin-solubilized dopamine transporters from dog caudate nucleus; from tissue; host or cells: dog caudate nucleus, digitonin-solubilized extract
T1 sequence (A0A8I3S5A0 1-617): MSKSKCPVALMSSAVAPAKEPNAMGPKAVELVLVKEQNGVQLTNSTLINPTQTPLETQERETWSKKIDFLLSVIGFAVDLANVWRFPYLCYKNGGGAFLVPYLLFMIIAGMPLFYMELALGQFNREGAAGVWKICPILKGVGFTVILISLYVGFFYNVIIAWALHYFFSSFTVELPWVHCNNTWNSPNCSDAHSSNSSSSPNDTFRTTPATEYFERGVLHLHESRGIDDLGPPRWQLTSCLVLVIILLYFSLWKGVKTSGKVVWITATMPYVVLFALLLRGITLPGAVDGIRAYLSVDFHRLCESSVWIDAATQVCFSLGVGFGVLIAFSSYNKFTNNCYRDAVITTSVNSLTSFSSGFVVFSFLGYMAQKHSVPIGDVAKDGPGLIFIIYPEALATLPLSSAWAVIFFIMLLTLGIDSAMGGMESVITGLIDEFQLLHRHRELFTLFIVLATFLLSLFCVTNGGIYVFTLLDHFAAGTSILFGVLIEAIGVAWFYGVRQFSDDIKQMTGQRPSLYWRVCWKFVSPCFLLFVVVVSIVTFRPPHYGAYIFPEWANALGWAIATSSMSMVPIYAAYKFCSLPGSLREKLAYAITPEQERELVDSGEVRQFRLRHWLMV

CAD cells = test: Ponceau-S staining of the total membrane (other cellular proteins); conditions: desipramine treatment for 3 days
NET [1] = biological target: T2, NET (Homo sapiens, UniProt P23975); test: Ubiquitination of NET: IP with anti-HA (Ub), immunoblot with anti-NET, in transfected CAD cells; assay type: cell-based; conditions: CAD cells transfected with NET and HA-Ub; 1 mM, pre-incubated 30 min at 37° C. before IP; vs vehicle
T2 construct: expressed in transfected cells; host or cells: CAD cells (transient, co-transfected with HA-Ub)
T2 sequence (P23975 whole entry): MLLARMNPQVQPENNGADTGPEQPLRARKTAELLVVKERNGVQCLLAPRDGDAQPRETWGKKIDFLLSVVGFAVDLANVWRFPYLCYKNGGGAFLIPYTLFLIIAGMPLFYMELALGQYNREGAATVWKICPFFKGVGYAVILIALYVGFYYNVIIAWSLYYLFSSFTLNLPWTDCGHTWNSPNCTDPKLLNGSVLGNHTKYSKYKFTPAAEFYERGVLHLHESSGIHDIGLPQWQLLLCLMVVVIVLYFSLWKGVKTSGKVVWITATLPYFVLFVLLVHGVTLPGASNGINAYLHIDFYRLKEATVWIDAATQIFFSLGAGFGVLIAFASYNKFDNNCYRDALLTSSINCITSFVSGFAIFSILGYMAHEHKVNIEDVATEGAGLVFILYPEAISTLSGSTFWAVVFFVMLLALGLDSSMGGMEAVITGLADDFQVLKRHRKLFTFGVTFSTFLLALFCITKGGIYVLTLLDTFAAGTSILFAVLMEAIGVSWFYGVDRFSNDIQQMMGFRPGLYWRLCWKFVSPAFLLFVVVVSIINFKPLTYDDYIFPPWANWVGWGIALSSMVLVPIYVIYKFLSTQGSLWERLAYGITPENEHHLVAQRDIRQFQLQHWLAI
Description: Prior to IP, cells were pre-incubated in media containing either vehicle (control), 1 mM PMA, or 1 mM methacholine (meth) for 30 min. PMA and methacholine increased ubiquitination of NET.
(§1) Acute regulation of NET ubiquitination by PMA and methacholine (meth) was assessed. […] One mM PMA and 1 mM meth both increased ubiquitination of NET (FIG. 3). Chronic regulation of ubiquitination of NET was assessed in CAD cells transfected with NET and HA-Ub. […] FIGS. 5A-5B.

NET [2] = biological target: T2, NET; test: NET proteins (total) by immunoblot with anti-NET in transfected CAD cells; assay type: cell-based; set-up: dose or concentration left out as unconfirmed; conditions: CAD cells transfected with NET and Ub; preincubated 4 hrs prior to lysis
Description: as §1

hNET = test: NE transport assay in CAD-his-hNET cells; assay type: cell-based, human; set-up: dose or concentration left out as unconfirmed; conditions: incubated 0, 1, 4 and 24 hrs prior to NE transport assay; triplicates
Description: FIG. 5A—Inhibition of proteasomes influence NET transport in cells. CAD-his-hNET cells in 24 well plates were incubated in MG132 ([…]) for 0, 1, 4 and 24 hrs prior to NE transport assay in triplicates.
Transport Assay. CAD-his-hNET cells in 24 well plates were incubated in MG132 ([…]) for 0, 1, 4 and 24 hrs prior to NE transport assay in triplicates. Protein Assay. CAD cells transfected with NET and Ub were preincubated with MG132 for 4 hrs prior to cell lysis and immunoblot with anti-NET for protein analysis.

[3] = digitonin-solubilized extract of dog caudate

In the case of `COC(=O)C1C(OC(=O)c2ccccc2)CC2CCC1N2C` (single isomer, unassigned; (+)) [(+)-cocaine], the “inhibition of soluble [3H]WIN 35,428 binding (competition studies)” value (from here on “inhibition of soluble”) (dopamine transporter; [3]) is listed as “weakly”.
In the case of `OC1(c2ccc(Cl)cc2)c2ccccc2C2=NCCN21` (stereo not shown) [mazindol], the “inhibition of soluble” value (dopamine transporter; [3]) is given as “strongly”.
For `CNCCCN1c2ccccc2CCc2ccccc21` [Desipramine, desipramine], the “inhibition of soluble” value (dopamine transporter; [3]) is given as “weakly” and the “amounts of other cellular proteins (Ponceau-S stain of total membrane)” value (CAD cells) is given as “no change”.
In the case of `CC(=O)OC(C)C[N+](C)(C)C` (stereo not shown) [meth, methacholine], the “ubiquitination of NET (acute regulation)” value (NET [1]) is reported as “increased”.
For `CCCCCCCCCCCCCC(=O)O[C@@H]1[C@@H](C)[C@@]2(O)[C@@H](C=C(CO)C[C@]3(O)C(=O)C(C)=C[C@@H]23)[C@@H]2C(C)(C)[C@]12OC(C)=O` [PMA], the “ubiquitination of NET (acute regulation)” value (NET [1]) was “increased”.
In the case of `COC(=O)[C@H]1[C@@H](c2ccc(F)cc2)C[C@@H]2CC[C@H]1N2C` [[^3H]WIN 35,428], the Kd (dopamine transporter; digitonin-solubilized extract of dog caudate, read-out: Kd of binding) is given as 16 nM.
For (−)-cocaine, the “potency compared to assays using [3H]GBR 12935” value (dopamine transporter; competition against [3H]WIN 35,428) is listed as “relatively more potent”.
For `CC(C)C[C@@H](C=O)NC(=O)[C@H](CC(C)C)NC(=O)[C@H](CC(C)C)NC(=O)OCc1ccccc1` [MG132] (Cbz-Leu-Leu-Leu-aldehyde), the NET protein concentration (NET [2]) was “increase” and the NET transport (hNET) was “increase”.
